# Laboratory results: patent US4760085A, “Use of D,L-and D-carazolol as anti-glaucoma agent” (Boehringer Mannheim GmbH, priority 1983, dated 1988)
# Read-outs that look alike come from different tables or passages of the source.
# How the values were obtained:
# [1] = Side effects observed in the experiments (species not stated); assay type: in vivo
# β-blocking action [2] = conditions: humans and animals; cited from earlier work
# [3] = system: internal pressure of the eye; experiment: Experiments on lowering of the internal pressure of the eye (species not stated); assay type: in vivo
# glaucoma patients [4] = experiment: Compatibility / side effects of eye drops in humans; assay type: in vivo
# Procedure: (§1) For this purpose, patients were treated once per day with D,L-carazolol eye drops.
# [5] = system: tachycardic effect of 1 mcg/kg i.v. Isoprenaline (β-blocking); experiment: β-blocking activity: inhibition of isoprenaline-induced tachycardia in conscious rabbits; assay type: in vivo; conditions: for ED50: Oryctolagus cuniculus, iv, read-out: β-blocking activity ID50 (inhibition dose 50% of the tachycardic effect of 1 mcg/kg i.v. Isoprenaline)
# Procedure: D,L-Carazolol, D-carazolol and L-carazolol were tested in respect to a β-blocking and intraocular pressure-reducing activity. The β-blocking activity was measured by means of a tachycardic effect caused by 1 μg/kg i.v. isoprenaline (Dr. Bartsch et al in Drug Research 27 (I), 5, p. 1022 et seq (1977).
# [6] = system: internal eye pressure in glaucoma patients; experiment: Lowering of internal eye pressure in humans (glaucoma patients), eye drops; assay type: in vivo
# Procedure: as §1
# [7] = system: intraocular pressure in water loaded rabbits; experiment: Intraocular pressure reduction in water loaded conscious rabbits; assay type: in vivo; conditions: one drop of 0.05% solution; for Reduction of the intraocular pressure in water loaded rabbits after administration of 0.05% solution: conscious rabbits, water loading
# Procedure: For measurement of an intraocular pressure-reducing effect the intraocular pressure in some test animals (rabbits) were increased by means of water loading (Method: Th. McDonalds et al in Arch. Ophtal. 82, p. 381, 1969). Thereafter the influence of one drop of a 0,05% solution of D,L-carazolol respectively the enantiomeres thereof were measured.
# β-blocking action [8] = conditions: Circ. Res., 49, 326-336/1981; cited from earlier work
# glaucoma patients [9] = conditions: cited from earlier work
# [10] = system: pressure of the eye in glaucoma patients; conditions: glaucoma patients (Krieglstein 1978); cited from earlier work
# [11] = 0.01% solution of D,L-carazolol
# [12] = D-carazolol, concentration not given
smiles,measurement,setting,value
"CC(C)NCC(O)COc1cccc2[nH]c3ccccc3c12 (racemic) [D,L-Carazolol, (D,L)-1-carbazolyl-(4)-oxy-3-isopropylaminopropan-2-ol]",undesired side effects,[1]; [11],without any undesired side effects being observed
same,β-blocking action,β-blocking action [2],outstanding β-blocking action
same,lowering of the inner pressure of the eye,[3]; [11],significant lowering of the inner pressure of the eye
same,"known side effects (anaesthetised feeling in the eye or head region, strong burning sensation)","glaucoma patients [4]; humans, 0.01% solution",did not give rise to any of the known side effects
same,compatibility,"glaucoma patients [4]; humans, eye drops",good compatibility
same,ED50,[5],3 µg/kg
same,β-blocking activity (in words),[5]; isoprenaline tachycardia,good β-blocking activity
same,lowering of internal eye pressure,"[6]; glaucoma patients, D,L-carazolol eye drops once per day, 0.005 to 0.03%",significantly lower the internal eye pressure in glaucoma patients
same,Reduction of the intraocular pressure in water loaded rabbits after administration of 0.05% solution,[7],12%
"CC(C)NC[C@@H](O)COc1cccc2[nH]c3ccccc3c12 [D-Carazolol, R(+)-1-carbazolyl-(4)-oxy-3-isopropylaminopropan-2-ol]",systemic side effects typical of β-blockers,[1]; [12],without the occurrence of systemic side effects which are typical of β-blockers
same,lowering of the internal pressure of the eye,[3]; [12],significant lowering of the internal pressure of the eye
same,side effects,glaucoma patients [4]; D-carazolol and salts thereof,in no case were side effects observed
same,ED50,[5],222 µg/kg
same,lowering of internal eye pressure,[6]; D-carazolol and salts thereof,significant lowering of the internal eye pressure
same,β-blocking action,β-blocking action [8],no such action was ascertained
same,Reduction of the intraocular pressure in water loaded rabbits after administration of 0.05% solution,[7],21%
same,intraocular pressure-reducing activity (in words),[7]; water loaded rabbits,most effective compound
CC(C)NC[C@H](O)COc1cccc2[nH]c3ccccc3c12 [L-Carazolol],ED50,[5],1.6 µg/kg
same,Reduction of the intraocular pressure in water loaded rabbits after administration of 0.05% solution,[7],5%
"CC(C)(C)NC[C@H](O)COc1nsnc1N1CCOCC1 [Timolol, S-(-)-1-(tert.-butylamino)-3-[(4-morpholino-1,2,5-thiadiazol-3-yl)-oxy]-propan-2-ol]",rare but very serious incidents as a result of the β-blockade,glaucoma patients [9]; after administration of timolol (Vonwil et al. 1981),"asthmatic attacks, heart rhythm disturbances and even some fatal cases"
same,side effects in glaucoma therapy,"glaucoma patients [9]; commercially available 0.5% solution, especially long-term therapy (Nielsen 1981)",significant lowering of the blood pressure and the development of dry eyes
CC(C)NCC(O)COc1cccc2ccccc12 (stereo not shown) [propranolol],reduction of the pressure of the eye,[10],can reduce the pressure of the eye in glaucoma patients
